# According to patent US9376425B2, “Heterocyclic compounds as MDM2 inhibitors for the treatment of cancer” (AMGEN INC., priority 2011, dated 2016):
# pIC50: −log10 of the molar value.
# Target: T1, human MDM2 (GST-hMDM2 1-188), interaction with biotinylated-p53 (1-83) (Homo sapiens, UniProt Q00987)
# T1 construct: Amino acid residues 1-188 of human MDM2 were expressed; made in house; host or cells: Escherichia coli
# Assay: improved HTRF assay (HTRF2 assay), inhibition of HDM2-p53 interaction
# Type: binding
# Settings: 0.2 nM GST-hMDM2, 0.5 nM biotinylated-p53, 100 mM KF
# Method: Residues 1-83 of human p53 were expressed as an amino-terminal AviTag™-TrxA-6xHis fusion protein (biotinylated p53) in E. coli. Each protein was purified from cell paste by affinity chromatography.
# Specifically, 10 uL of GST-hMDM2 was incubated with 10 ul of diluted compound (various concentrations, serially diluted) in 10% DMSO for 20 minutes at room temperature. 20 uL of biotinylated-p53 was added to the GST-hMDM2+ compound mixture, and then incubated at room temperature for 60 min. 10 uL of detection buffer consisting of SA-XLent, anti-GST cryptate antibody and KF was added to GST-hMDM2, biotinylated-p53 and compound reaction and left at room temperature to reach equilibrium for >4 hrs. The final concentration of DMSO in the reaction was 2%. Time-resolved fluorescence readings were measured on a microplate multilabel reader. Percentage of inhibition was calculated relative to nutlin-3.
# T1 sequence (Q00987 1-188): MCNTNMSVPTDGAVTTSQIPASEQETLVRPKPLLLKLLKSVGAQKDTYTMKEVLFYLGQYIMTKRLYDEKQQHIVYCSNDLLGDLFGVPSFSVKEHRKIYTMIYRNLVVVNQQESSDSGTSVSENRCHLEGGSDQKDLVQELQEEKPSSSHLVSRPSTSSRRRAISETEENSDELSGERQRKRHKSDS
row,SMILES,pIC50
1,"CC(C)(C)S(=O)(=O)C[C@H](C1CC1)N1C(=O)[C@@H](CC(=O)O)O[C@H](c2ccc(Cl)c(Cl)c2)[C@H]1c1ccc(Cl)cc1 (single isomer, unassigned) [Example 319, 2-((2R,5R,6R)-4-((S)-2-(tert-Butylsulfonyl)-1-cyclopropylethyl)-5-(4-chlorophenyl)-6-(3,4-dichlorophenyl)-3-oxomorpholin-2-yl)acetic acid or 2-((2S,5R,6R)-4-((S)-2-(tert-butylsulfonyl)-1-cyclopropylethyl)-5-(4-chlorophenyl)-6-(3,4-dichlorophenyl)-3-oxomorpholin-2-yl)acetic acid]",6.95
2,"O=C(C[C@H]1O[C@H](c2cccc(Cl)c2)[C@@H](c2ccc(Cl)cc2)N([C@H](CN(c2ccccc2F)S(=O)(=O)C2CC2)C2CC2)C1=O)Nc1ccccn1 (single isomer, unassigned) [Example 368, 2-((2R,5R,6R)-6-(3-Chlorophenyl)-5-(4-chlorophenyl)-4-((S)-1-cyclopropyl-2-(N-(2-fluorophenyl)cyclopropanesulfonamido)ethyl)-3-oxomorpholin-2-yl)-N-(pyridin-2-yl)acetamide or 2-((2S,5R,6R)-6-(3-chlorophenyl)-5-(4-chlorophenyl)-4-((S)-1-cyclopropyl-2-(N-(2-fluorophenyl)cyclopropanesulfonamido)ethyl)-3-oxomorpholin-2-yl)-N-(pyridin-2-yl)acetamide]",> 9.00
3,"O=C(O)C[C@H]1O[C@H](c2cccc(Cl)c2)[C@@H](c2ccc(Cl)cc2)N([C@H](CN(c2ccccc2F)S(=O)(=O)C2CC2)C2CC2)C1=O (single isomer, unassigned) [Example 159, 2-((2R,5R,6R)-6-(3-chlorophenyl)-5-(4-chlorophenyl)-4-((S)-1-cyclopropyl-2-(N-(2-fluorophenyl)cyclopropanesulfonamido)ethyl)-3-oxomorpholin-2-yl)acetic acid or 2-((2S,5R,6R)-6-(3-chlorophenyl)-5-(4-chlorophenyl)-4-((S)-1-cyclopropyl-2-(N-(2-fluorophenyl)cyclopropanesulfonamido)ethyl)-3-oxomorpholin-2-yl)acetic acid]",> 9.00
4,"Cn1ccnc1C[C@H]1O[C@H](c2cccc(Cl)c2)[C@@H](c2ccc(Cl)cc2)N([C@H](CS(=O)(=O)C(C)(C)C)C2CC2)C1=O [Example 402, (2R,5R,6R)-4-((S)-2-(tert-Butylsulfonyl)-1-cyclopropylethyl)-6-(3-chlorophenyl)-5-(4-chlorophenyl)-2-((1-methyl-1H-imidazol-2-yl)methyl)morpholin-3-one]",7.54
5,"O=C(O)C[C@H]1O[C@H](c2cccc(Cl)c2)[C@@H](c2ccc(Cl)c(F)c2)N([C@H](CN(c2ccccc2F)S(=O)(=O)C2CC2)C2CC2)C1=O (single isomer, unassigned) [Example 315, 2-((2R,5R,6R)-5-(4-Chloro-3-fluorophenyl)-6-(3-chlorophenyl)-4-((S)-1-cyclopropyl-2-(N-(2-fluorophenyl)cyclopropanesulfonamido)ethyl)-3-oxomorpholin-2-yl)acetic acid or 2-((2S,5R,6R)-5-(4-chloro-3-fluorophenyl)-6-(3-chlorophenyl)-4-((S)-1-cyclopropyl-2-(N-(2-fluorophenyl)cyclopropanesulfonamido)ethyl)-3-oxomorpholin-2-yl)acetic acid]",> 9.00
6,"CC(C)[C@@H](CN(c1ccccc1F)S(=O)(=O)C(C)(C)C)N1C(=O)[C@@H](CC(=O)O)O[C@H](c2cccc(Cl)c2)[C@H]1c1ccc(Cl)cc1 (single isomer, unassigned) [Example 200, 2-((2R,5R,6R)-6-(3-chlorophenyl)-5-(4-chlorophenyl)-4-((S)-1-(N-(2-fluorophenyl)-2-methylpropan-2-ylsulfonamido)-3-methylbutan-2-yl)-3-oxomorpholin-2-yl)acetic acid or 2-((2S,5R,6R)-6-(3-chlorophenyl)-5-(4-chlorophenyl)-4-((S)-1-(N-(2-fluorophenyl)-2-methylpropan-2-ylsulfonamido)-3-methylbutan-2-yl)-3-oxomorpholin-2-yl)acetic acid]",9.00
7,"CC[C@@H](CS(=O)(=O)C(C)(C)C)N1C(=O)[C@@H](C[C@@H](O)CO)O[C@H](c2cccc(Cl)c2)[C@H]1c1ccc(Cl)cc1 (single isomer, unassigned) [Example 373]",7.35
8,"CC(C)(C)S(=O)(=O)C[C@H](C1CC1)N1C(=O)[C@@H](CC#N)O[C@H](c2cccc(Cl)c2)[C@H]1c1ccc(Cl)cc1 (single isomer, unassigned) [Example 387, 2-((2R,5R,6R)-4-((S)-2-(tert-Butylsulfonyl)-1-cyclopropylethyl)-6-(3-chlorophenyl)-5-(4-chlorophenyl)-3-oxomorpholin-2-yl)acetonitrile or 2-((2S,5R,6R)-4-((S)-2-(tert-butylsulfonyl)-1-cyclopropylethyl)-6-(3-chlorophenyl)-5-(4-chlorophenyl)-3-oxomorpholin-2-yl)acetonitrile]",7.21
9,"C=CC[C@@H]1O[C@H](c2cccc(Cl)c2)[C@@H](c2ccc(Cl)cc2)N([C@@H](CC)CN(c2ccccn2)S(=O)(=O)C2CC2)C1=O (single isomer, unassigned) [Example 179, N-((S)-2-((2S,5R,6R)-2-allyl-6-(3-chlorophenyl)-5-(4-chlorophenyl)-3-oxomorpholino)butyl)-N-(pyridin-2-yl)cyclopropanesulfonamide or N-((S)-2-((2R,5R,6R)-2-allyl-6-(3-chlorophenyl)-5-(4-chlorophenyl)-3-oxomorpholino)butyl)-N-(pyridin-2-yl)cyclopropanesulfonamide]",6.85
10,"CC(C)(C)S(=O)(=O)C[C@H](C1CC1)N1C(=O)[C@@](C)(CC(=O)O)O[C@H](c2cccc(Cl)c2)[C@H]1c1ccc(Cl)cc1 (single isomer, unassigned) [Example 335, 2-((2R,5R,6R)-4-((S)-2-(tert-Butylsulfonyl)-1-cyclopropylethyl)-6-(3-chlorophenyl)-5-(4-chlorophenyl)-2-methyl-3-oxomorpholin-2-yl)acetic acid or 2-((2S,5R,6R)-4-((S)-2-(tert-butylsulfonyl)-1-cyclopropylethyl)-6-(3-chlorophenyl)-5-(4-chlorophenyl)-2-methyl-3-oxomorpholin-2-yl)acetic acid]",8.52
11,"CC[C@@H](CS(=O)(=O)C(C)(C)C)N1C(=O)[C@@H](CNC(=O)N(CC)CC)O[C@H](c2cccc(Cl)c2)[C@H]1c1ccc(Cl)cc1 (single isomer, unassigned) [Example 375, 3-(((2R,5R,6R)-4-((S)-1-(tert-Butylsulfonyl)butan-2-yl)-6-(3-chlorophenyl)-5-(4-chlorophenyl)-3-oxomorpholin-2-yl)methyl)-1,1-diethylurea or 3-(((2S,5R,6R)-4-((S)-1-(tert-butylsulfonyl)butan-2-yl)-6-(3-chlorophenyl)-5-(4-chlorophenyl)-3-oxomorpholin-2-yl)methyl)-1,1-diethylurea]",7.26
12,"CN(C(C)(C)C)S(=O)(=O)C[C@H](C1CC1)N1C(=O)[C@@H](CC(=O)O)O[C@H](c2cccc(Cl)c2)[C@H]1c1ccc(Cl)cc1 (single isomer, unassigned) [Example 300, 2-((2R,5R,6R)-4-((S)-2-(N-(tert-Butyl)-N-methylsulfamoyl)-1-cyclopropylethyl)-6-(3-chlorophenyl)-5-(4-chlorophenyl)-3-oxomorpholin-2-yl)acetic acid or 2-((2S,5R,6R)-4-((S)-2-(N-(tert-butyl)-N-methylsulfamoyl)-1-cyclopropylethyl)-6-(3-chlorophenyl)-5-(4-chlorophenyl)-3-oxomorpholin-2-yl)acetic acid]",> 9.00
13,"CC[C@@H](CS(=O)(=O)C(C)(C)C)N1C(=O)[C@@H](CNC(=O)OC(C)(C)C)O[C@H](c2cccc(Cl)c2)[C@H]1c1ccc(Cl)cc1 [Example 377, tert-Butyl (((2R,5R,6R)-4-((S)-1-(tert-utylsulfonyl)butan-2-yl)-6-(3-chlorophenyl)-5-(4-chlorophenyl)-3-oxomorpholin-2-yl)methyl)carbamate and tert-butyl (((2S,5R,6R)-4-((S)-1-(tert-butylsulfonyl)butan-2-yl)-6-(3-chlorophenyl)-5-(4-chlorophenyl)-3-oxomorpholin-2-yl)methyl)carbamate]",7.07
14,"NC(=O)C[C@@H]1O[C@H](c2cccc(Cl)c2)[C@@H](c2ccc(Cl)cc2)N([C@H](CN(c2ccccc2F)S(=O)(=O)C2CC2)C2CC2)C1=O (single isomer, unassigned) [Example 256, 2-((2S,5R,6R)-6-(3-chlorophenyl)-5-(4-chlorophenyl)-4-((S)-1-cyclopropyl-2-(N-(2-fluorophenyl)cyclopropanesulfonamido)ethyl)-3-oxomorpholin-2-yl)acetamide or 2-((2R,5R,6R)-6-(3-chlorophenyl)-5-(4-chlorophenyl)-4-((S)-1-cyclopropyl-2-(N-(2-fluorophenyl)cyclopropanesulfonamido)ethyl)-3-oxomorpholin-2-yl)acetamide]",> 9.00
